Values of other authors as cited in patent US20090041840A1, “Positive wakeup pharmaceutical sleep system with compatible pre-bedtime administration” (priority 2003, published 2009).

Legend:
[1] = Wesensten
[2] = not given; remark: listed apart in the source

SMILES: COC(=O)C(c1ccccc1)C1CCCCN1 (racemic) [methylphenidate]
- Half-life, average (literature sources): 2.5 h

SMILES: CCOC(=O)c1ncn2c1CN(C)C(=O)c1cc(F)ccc1-2 [Flumazenil, ethyl 8-fluoro-5,6-dihydro-5-methyl-6-oxo-4H-imidazo(1,5a)(1,4)benzodiazepine-3-carboxylate]
- Effect in countering sleep deprivation [1]: ineffective

SMILES: Cn1c(=O)c2c(ncn2C)n(C)c1=O [caffeine, 1,3,7-trimethylxanthine]
- Mean half-life in plasma (healthy individuals, Brachtel and Richter, Busto et al.): about 5 hours

SMILES: NC(=O)C[S+]([O-])C(c1ccccc1)c1ccccc1 (centres unmarked) [modafinil]
- Half-life (Wong, et al): approximately 15 hours

SMILES: CCN(C(C)=O)c1cccc(-c2ccnc3c(C#N)cnn23)c1 [zaleplon]
- Solubility in water [2]: practically insoluble
